Measurements reported in ChEMBL document CHEMBL4393671, “Design of a Cyclin G Associated Kinase (GAK)/Epidermal Growth Factor Receptor (EGFR) Inhibitor Set to Interrogate the Relationship of EGFR and GAK in Chordoma” (J Med Chem, 2019).
Calls of active or inactive are those of the source. The rule behind the calls is not given here.

Experiments:
cells [1] = assay type: ADME, cell-based; details: Homo sapiens, WS1, 72 h
Description: Cytotoxicity against human WS1 cells measured after 72 hrs by alamar blue assay

cells [2] = assay type: functional, cell-based; details: Homo sapiens, 72 h
Description: Antiproliferative activity against human UCH7 cells measured after 72 hrs by alamar blue assay

cells [3] = assay type: functional, cell-based; details: Homo sapiens, 72 h; remark: listed apart in the source
Description: Antiproliferative activity against human UCH12 cells measured after 72 hrs by alamar blue assay

[4] = Effect on total EGFR expression in human UCH1 cells at 1 to 10 uM measured after 4 hrs by Western blot analysis; assay type: ADME, cell-based
[5] = Effect on total EGFR expression in human UCH2 cells at 1 to 10 uM measured after 4 hrs by Western blot analysis; assay type: ADME, cell-based
[6] = target: T1, Epidermal growth factor receptor (Homo sapiens, UniProt P00533); test: Inhibition of EGFR in human UCH1 cells assessed as reduction in EGF-induced EGFR phosphorylation at Y1068 residue at 1 uM preincubated for 4 hrs followed by EGF--stimulation and measured after 15 mins by Western blot analysis relative to control; assay type: cell-based
T1 sequence (P00533 whole entry): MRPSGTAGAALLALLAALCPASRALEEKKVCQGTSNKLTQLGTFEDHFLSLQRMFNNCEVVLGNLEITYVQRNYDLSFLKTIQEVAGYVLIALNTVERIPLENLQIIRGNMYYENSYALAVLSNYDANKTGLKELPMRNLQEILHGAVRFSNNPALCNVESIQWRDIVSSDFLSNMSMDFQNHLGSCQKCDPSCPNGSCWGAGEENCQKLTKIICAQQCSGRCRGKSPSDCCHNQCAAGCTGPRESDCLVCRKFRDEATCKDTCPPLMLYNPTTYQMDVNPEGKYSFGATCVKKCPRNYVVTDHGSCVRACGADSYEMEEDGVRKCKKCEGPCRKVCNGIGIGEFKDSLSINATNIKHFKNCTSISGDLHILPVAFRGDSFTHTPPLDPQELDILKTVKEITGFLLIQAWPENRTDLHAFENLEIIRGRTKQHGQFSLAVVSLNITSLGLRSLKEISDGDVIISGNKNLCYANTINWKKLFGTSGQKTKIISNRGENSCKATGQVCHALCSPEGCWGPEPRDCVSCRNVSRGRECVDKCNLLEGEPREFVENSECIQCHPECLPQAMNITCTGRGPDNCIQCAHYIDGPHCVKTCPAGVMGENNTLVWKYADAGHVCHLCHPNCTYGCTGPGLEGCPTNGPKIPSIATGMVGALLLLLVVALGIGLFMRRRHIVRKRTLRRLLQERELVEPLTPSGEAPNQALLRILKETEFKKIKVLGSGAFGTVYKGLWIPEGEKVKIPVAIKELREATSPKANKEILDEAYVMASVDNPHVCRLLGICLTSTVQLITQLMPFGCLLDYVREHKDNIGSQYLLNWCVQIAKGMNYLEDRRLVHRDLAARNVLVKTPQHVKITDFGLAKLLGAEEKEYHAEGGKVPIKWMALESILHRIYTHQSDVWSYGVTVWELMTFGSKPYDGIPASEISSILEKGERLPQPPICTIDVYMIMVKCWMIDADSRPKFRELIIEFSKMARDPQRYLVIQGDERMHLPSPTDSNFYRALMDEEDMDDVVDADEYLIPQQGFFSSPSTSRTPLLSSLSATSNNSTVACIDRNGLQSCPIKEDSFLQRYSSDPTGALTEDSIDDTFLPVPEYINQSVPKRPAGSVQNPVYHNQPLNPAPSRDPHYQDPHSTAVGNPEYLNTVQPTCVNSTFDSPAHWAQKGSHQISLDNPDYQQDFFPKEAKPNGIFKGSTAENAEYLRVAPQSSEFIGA

[7] = target: T1, Epidermal growth factor receptor; test: Inhibition of EGFR in human UCH2 cells assessed as reduction in EGF-induced EGFR phosphorylation at Y1068 residue at 1 uM preincubated for 4 hrs followed by EGF--stimulation and measured after 15 mins by Western blot analysis relative to control; assay type: cell-based
[8] = target: T2, Cyclin-G-associated kinase (Homo sapiens) (UniProt O14976); test: Binding affinity to GAK in human SUM159 cell lysates by multiplexed inhibitor bead profiling-based LC-MS/MS analysis; assay type: subcellular; details: Lysate
T2 sequence (whole entry): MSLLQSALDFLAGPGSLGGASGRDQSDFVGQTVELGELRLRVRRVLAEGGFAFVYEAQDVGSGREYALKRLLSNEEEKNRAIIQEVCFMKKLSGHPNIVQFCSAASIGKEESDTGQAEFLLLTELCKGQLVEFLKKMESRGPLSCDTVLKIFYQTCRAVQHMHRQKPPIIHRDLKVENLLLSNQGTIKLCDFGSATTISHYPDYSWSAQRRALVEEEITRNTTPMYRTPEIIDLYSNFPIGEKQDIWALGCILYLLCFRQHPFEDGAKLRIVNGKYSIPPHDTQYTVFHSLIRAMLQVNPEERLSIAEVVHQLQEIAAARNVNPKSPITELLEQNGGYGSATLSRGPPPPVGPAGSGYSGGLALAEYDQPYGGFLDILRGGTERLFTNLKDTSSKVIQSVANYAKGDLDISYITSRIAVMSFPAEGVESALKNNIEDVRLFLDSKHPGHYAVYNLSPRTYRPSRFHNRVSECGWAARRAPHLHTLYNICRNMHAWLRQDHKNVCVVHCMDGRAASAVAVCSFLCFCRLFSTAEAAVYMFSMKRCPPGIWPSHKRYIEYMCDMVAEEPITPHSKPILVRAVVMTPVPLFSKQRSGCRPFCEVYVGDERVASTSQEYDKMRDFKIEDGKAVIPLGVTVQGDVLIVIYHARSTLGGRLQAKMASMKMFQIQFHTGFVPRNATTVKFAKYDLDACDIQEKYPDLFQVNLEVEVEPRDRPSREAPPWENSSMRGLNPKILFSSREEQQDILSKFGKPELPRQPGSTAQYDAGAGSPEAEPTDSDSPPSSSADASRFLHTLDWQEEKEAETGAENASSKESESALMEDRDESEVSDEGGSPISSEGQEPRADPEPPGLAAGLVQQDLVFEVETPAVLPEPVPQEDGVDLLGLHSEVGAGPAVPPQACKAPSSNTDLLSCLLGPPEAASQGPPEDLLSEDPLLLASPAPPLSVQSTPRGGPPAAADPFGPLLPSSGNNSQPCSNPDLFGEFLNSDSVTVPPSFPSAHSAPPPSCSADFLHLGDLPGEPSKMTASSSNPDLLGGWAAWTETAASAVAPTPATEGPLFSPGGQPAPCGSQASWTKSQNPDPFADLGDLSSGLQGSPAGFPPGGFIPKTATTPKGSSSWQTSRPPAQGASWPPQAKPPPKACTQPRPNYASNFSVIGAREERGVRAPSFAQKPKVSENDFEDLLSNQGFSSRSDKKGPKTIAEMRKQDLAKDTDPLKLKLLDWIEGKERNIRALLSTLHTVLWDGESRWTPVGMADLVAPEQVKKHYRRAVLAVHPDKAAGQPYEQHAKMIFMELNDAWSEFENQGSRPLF

[9] = target: T3, Serine/threonine-protein kinase Nek1 (Homo sapiens) (UniProt Q96PY6); test: Binding affinity to NEK1 in human SUM159 cell lysates by multiplexed inhibitor bead profiling-based LC-MS/MS analysis; assay type: subcellular; details: Lysate
T3 sequence (whole entry): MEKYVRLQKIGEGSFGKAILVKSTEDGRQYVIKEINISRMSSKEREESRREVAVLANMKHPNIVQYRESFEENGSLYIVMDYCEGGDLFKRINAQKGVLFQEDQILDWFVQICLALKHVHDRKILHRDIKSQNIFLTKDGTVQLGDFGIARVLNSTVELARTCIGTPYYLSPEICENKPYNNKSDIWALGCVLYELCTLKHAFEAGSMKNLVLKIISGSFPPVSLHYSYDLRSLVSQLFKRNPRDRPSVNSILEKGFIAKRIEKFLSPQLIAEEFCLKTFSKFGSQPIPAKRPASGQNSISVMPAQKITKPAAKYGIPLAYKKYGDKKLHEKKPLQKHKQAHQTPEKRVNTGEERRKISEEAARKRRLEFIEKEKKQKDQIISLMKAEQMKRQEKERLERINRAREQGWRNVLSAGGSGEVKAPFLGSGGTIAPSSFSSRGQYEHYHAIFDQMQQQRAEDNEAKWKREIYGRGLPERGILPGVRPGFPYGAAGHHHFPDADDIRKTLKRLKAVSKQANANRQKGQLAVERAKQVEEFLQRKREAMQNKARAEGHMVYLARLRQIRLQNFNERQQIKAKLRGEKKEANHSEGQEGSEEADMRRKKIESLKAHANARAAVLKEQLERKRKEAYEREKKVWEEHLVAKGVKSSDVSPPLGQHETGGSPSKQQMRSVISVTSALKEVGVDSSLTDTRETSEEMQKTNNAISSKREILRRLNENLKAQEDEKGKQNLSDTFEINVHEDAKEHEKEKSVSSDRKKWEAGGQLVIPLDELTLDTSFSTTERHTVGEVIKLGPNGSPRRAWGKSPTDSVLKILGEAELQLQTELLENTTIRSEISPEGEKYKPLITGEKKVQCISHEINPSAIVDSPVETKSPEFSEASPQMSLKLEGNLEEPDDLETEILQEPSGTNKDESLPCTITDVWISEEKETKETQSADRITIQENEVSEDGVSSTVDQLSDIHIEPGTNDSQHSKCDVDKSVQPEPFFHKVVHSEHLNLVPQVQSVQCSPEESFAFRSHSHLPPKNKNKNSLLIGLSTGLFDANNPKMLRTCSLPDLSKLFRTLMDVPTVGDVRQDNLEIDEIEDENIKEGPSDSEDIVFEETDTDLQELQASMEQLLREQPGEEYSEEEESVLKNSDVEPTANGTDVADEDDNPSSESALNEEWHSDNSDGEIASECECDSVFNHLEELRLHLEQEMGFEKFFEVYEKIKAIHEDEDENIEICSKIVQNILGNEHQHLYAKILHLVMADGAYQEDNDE

## C#Cc1cccc(Nc2ccnc3cc(OC)c(OC)cc23)c1
Cells [1]
  IC50: 7.7 µM
Cells [2]
  IC50: 20 µM
Cells [3]
  IC50: 30 µM
[4]
  Activity: Non-Toxic
[5]
  Activity: Non-Toxic
[6]
  inhibition: 0%
[7]
  inhibition: 0%
[8]
  Activity: Active
[9]
  Activity: Active
